From patent US20230339937A1, “CONDENSED RING COMPOUNDS THAT INHIBIT H-PGDS” (SATO PHARMACEUTICAL CO., LTD., priority 2020, published 2023)

Target: T1, Recombinant human H-PGDS (Homo sapiens, UniProt O60760)
T1 construct: made in house; host or cells: E. coli
Experiment: H-PGDS inhibitory activity (prostaglandin D2 production from prostaglandin H2, measured by LC-MS/MS)
Type: biochemical
Settings: recombinant human H-PGDS 1.0 nM expressed in E. coli; prostaglandin H2 25 μM; preincubated 15 minutes on ice, reacted on ice for 1 minute; concentration that inhibits prostaglandin D2 production by 50%
Procedure, shortened: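 Recombinant human H-PGDS (E. coli-expressed, 1.0 nM final) preincubated with compound 15 min on ice in 20 mM Tris-HCl pH 8.0, 2 mM MgCl2, 2 mM GSH, 0.5 mg/mL γ-globulin. Reaction with 25 µM PGH2 run 1 min on ice, stopped with FeCl2/citric acid, PGD2 quantified by LC-MS/MS. Activity expressed as % of DMSO control after subtracting non-enzymatic PGD2.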

T1 sequence (O60760 whole entry): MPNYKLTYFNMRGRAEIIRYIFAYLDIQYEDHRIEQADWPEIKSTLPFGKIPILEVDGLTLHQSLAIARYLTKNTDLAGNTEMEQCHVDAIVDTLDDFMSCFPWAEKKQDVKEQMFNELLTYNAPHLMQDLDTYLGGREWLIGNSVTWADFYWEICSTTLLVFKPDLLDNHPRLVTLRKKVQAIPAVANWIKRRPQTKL

SMILES	IC50
Cc1ccc(N2CCC(NC(=O)c3ccc(-c4nccc5occc45)cc3)CC2)nc1 [Example 151, 4-(furo[3,2-c]pyridin-4-yl)-N-[1-(5-methylpyridin-2-yl)piperidin-4-yl]benzamide]	1.4 nM
O=C(N[C@H]1CC[C@H](N2CC(F)(F)C2)CC1)c1ccc(-c2nccc3occc23)cc1 [Example 304, N-[trans-4-(3,3-difluoroazetidin-1-yl)cyclohexyl]-4-(furo[3,2-c]pyridin-4-yl)benzamide]	9.2 nM
O=C(N[C@H]1CCN(c2ccc(Cl)nn2)C1)c1ccc(-c2nccc3occc23)cc1 [Example 228, (S)—N-[1-(6-chloropyridazin-3-yl)pyrrolidin-3-yl]-4-(furo[3,2-c]pyridin-4-yl)benzamide]	1.9 nM
O=C(Nc1cc(-c2ccccc2)[nH]n1)c1ccc(-c2nccc3occc23)cc1 [Example 100, 4-(furo[3,2-c]pyridin-4-yl)-N-(5-phenyl-1H-pyrazol-3-yl)benzamide]	19 nM
Cn1nnnc1N1CC[C@H](NC(=O)c2ccc(-c3nccc4occc34)cc2)C1 [Example 231, (S)-4-(furo[3,2-c]pyridin-4-yl)-N-[1-(1-methyl-1H-tetrazol-5-yl)pyrrolidin-3-yl]benzamide]	3.2 nM
O=C(NC1CCN(c2ncccn2)CC1)c1ccc(-c2nccc3occc23)cc1 [Example 143, 4-(furo[3,2-c]pyridin-4-yl)-N-[1-(pyrimidin-2-yl)piperidin-4-yl]benzamide]	0.78 nM
O=C(N[C@H]1CCN(c2ccnc(Cl)c2)C1)c1ccc(-c2nccc3occc23)cc1 [Example 195, (S)-N-[1-(2-chloropyridin-4-yl)pyrrolidin-3-yl]-4-(furo[3,2-c]pyridin-4-yl)benzamide]	1.7 nM
CC(C)(O)[C@H]1CC[C@H](NC(=O)c2ccc(-c3nccc4occc34)cc2F)CC1 [Example 126, 2-fluoro-4-(furo[3,2-c]pyridin-4-yl)-N-[trans-4-(2-hydroxypropan-2-yl)cyclohexyl]benzamide]	13 nM
Cn1c(N2CCC(NC(=O)c3ccc(-c4nccc5occc45)cc3)CC2)cccc1=O [Example 184, 4-(furo[3,2-c]pyridin-4-yl)-N-[1-(1-methyl-6-oxo-1,6-dihydropyridin-2-yl)piperidin-4-yl]benzamide]	2.1 nM
O=C(NC1CCN(C(=O)C2CC2)CC1)c1ccc(-c2nccc3occc23)c(F)c1 [Example 324, N-[1-(cyclopropanecarbonyl)piperidin-4-yl]-3-fluoro-4-(furo[3,2-c]pyridin-4-yl)benzamide]	1.3 nM

The next lines start with the values.

IC50	SMILES
1.5 nM	O=C(NCc1ccccn1)c1ccc(-c2nccc3[nH]ccc23)cc1 [Example 9]
1.6 nM	CC(C)N(CCNC(=O)c1ccc(-c2nccc3[nH]ccc23)cc1)C(C)C [Example 25, N-[2-(diisopropylamino)ethyl]-4-(1H-pyrrolo[3,2-c]pyridin-4-yl)benzamide]
1.1 nM	Cc1nn(C)cc1CNC(=O)c1ccc(-c2nccc3[nH]ccc23)cc1 [Example 39, N-[(1,3-dimethyl-1H-pyrazol-4-yl)methyl]-4-(1H-pyrrolo[3,2-c]pyridin-4-yl)benzamide]
1.6 nM	O=C(NC1CCCCC1)c1ccc(-c2nccc3[nH]ccc23)cc1 [Example 5, N-cyclohexyl-4-(1H-pyrrolo[3,2-c]pyridin-4-yl)benzamide]
1.3 nM	Cn1ccc(CNC(=O)c2ccc(-c3nccc4[nH]ccc34)cc2)n1 [Example 53, N-[(1-methyl-1H-pyrazol-3-yl)methyl]-4-(1H-pyrrolo[3,2-c]pyridin-4-yl)benzamide]
0.99 nM	CC(C)NC(=O)c1ccc(-c2nccc3[nH]ccc23)cc1 [Example 15, N-isopropyl-4-(1H-pyrrolo[3,2-c]pyridin-4-yl)benzamide]
0.46 nM	CC(=O)NCCCCNC(=O)c1ccc(-c2nccc3[nH]ccc23)cc1 [Example 29, N-(4-acetamidobutyl)-4-(1H-pyrrolo[3,2-c]pyridin-4-yl)benzamide]
